The source of these data is patent US11066369B2, “N-(pyridin-2-yl)pyridine-sulfonamide derivatives and their use in the treatment of disease” (Novartis AG, priority 2016, dated 2021).

Counter-ions that a name gives are not always drawn. Like-named read-outs stand apart in the source and are kept apart here.

The target in the test is T1, horseradish peroxidase (HRP) tagged delF508-CFTR (Homo sapiens, UniProt P13569, DEL508-508).
T1 construct: expressed in transfected cells
The experiment in a line: Measurement of delF508-CFTR-HRP surface expression in CFBE41o- cells.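 On DelF508-CFTR-HRP Amax %: percent efficacy relative to reference corrector lumacaftor.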 Conditions: CFBE41o- cells; for Emax: read-out: DelF508-CFTR-HRP Amax %; for EC50: read-out: DelF508-CFTR-HRP EC50. It counts as cell-based. The procedure, abridged:
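Surface-trafficked delF508-CFTR detected via extracellular HRP tag, read as luminescence from a membrane-impermeant substrate in CFBE41o- cells. Cells pre-induced 48h with 500 ng/mL doxycycline, then exposed 24h at 37° C to a 10-point, 3-fold dilution series from 10 μM (DMSO ≤0.5%). Triplicate dose-responses fitted logistically for EC50 after per-plate normalization; fold change versus reference compound.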

The mark [1] stands for this setting: delF508-CFTR-HRP surface expression.
[2] abbreviates: mean of at least two replicates.

T1 sequence (P13569 with tags, fused parts or gaps DEL508-508): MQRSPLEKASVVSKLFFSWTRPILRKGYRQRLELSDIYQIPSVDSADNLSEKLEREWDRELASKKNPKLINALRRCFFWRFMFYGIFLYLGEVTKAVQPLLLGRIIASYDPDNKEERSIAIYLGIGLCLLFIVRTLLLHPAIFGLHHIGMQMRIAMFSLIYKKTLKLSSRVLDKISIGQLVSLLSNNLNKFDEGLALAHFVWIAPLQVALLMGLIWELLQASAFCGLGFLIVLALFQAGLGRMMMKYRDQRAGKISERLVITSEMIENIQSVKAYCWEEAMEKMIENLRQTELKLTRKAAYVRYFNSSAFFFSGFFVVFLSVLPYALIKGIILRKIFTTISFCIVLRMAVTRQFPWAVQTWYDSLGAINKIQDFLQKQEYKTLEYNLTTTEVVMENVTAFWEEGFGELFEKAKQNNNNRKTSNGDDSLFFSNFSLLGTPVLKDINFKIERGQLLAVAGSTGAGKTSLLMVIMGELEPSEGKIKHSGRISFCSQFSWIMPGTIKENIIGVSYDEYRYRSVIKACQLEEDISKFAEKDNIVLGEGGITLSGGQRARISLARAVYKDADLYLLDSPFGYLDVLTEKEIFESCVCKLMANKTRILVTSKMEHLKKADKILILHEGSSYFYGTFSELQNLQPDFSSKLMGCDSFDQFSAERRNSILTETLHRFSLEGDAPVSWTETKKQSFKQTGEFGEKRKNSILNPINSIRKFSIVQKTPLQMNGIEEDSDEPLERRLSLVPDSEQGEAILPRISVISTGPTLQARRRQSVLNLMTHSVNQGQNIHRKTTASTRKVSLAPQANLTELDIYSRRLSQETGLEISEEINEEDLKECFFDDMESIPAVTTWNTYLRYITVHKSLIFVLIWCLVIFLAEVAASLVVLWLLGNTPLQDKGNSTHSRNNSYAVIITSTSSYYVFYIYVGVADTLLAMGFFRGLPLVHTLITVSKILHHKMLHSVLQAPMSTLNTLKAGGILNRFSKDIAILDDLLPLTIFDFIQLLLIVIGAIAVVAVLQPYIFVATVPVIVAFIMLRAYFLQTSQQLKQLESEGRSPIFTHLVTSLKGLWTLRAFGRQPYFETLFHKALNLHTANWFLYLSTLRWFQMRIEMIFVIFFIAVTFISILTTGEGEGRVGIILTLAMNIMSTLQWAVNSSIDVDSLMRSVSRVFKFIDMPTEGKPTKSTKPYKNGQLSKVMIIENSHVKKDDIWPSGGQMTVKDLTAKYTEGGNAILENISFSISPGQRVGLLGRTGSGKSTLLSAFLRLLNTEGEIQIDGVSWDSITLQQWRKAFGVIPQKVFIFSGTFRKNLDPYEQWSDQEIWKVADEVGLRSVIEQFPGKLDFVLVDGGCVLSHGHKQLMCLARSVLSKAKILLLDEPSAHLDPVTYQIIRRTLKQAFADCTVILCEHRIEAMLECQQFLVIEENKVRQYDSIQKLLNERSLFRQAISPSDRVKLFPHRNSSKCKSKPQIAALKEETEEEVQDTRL

In the case of `Nc1ccc(S(=O)(=O)Nc2ccc(Cl)c(-c3ccccc3C3CC3)n2)cn1` [Example 54, 6-amino-N-(5-chloro-6-(2-cyclopropylphenyl)pyridin-2-yl)pyridine-3-sulfonamide], under setting [1], the Emax was determined as 305% and the concentration for a half-maximal effect (EC50) is 2350 nM. Consider `Nc1cccc(S(=O)(=O)Nc2ccc(Cl)c(-c3ccccc3OC(F)(F)F)n2)n1` [Example 59, 6-amino-N-(5-chloro-6-(2-(trifluoromethoxy)phenyl)pyridin-2-yl)pyridine-2-sulfonamide], for which, under setting [1], the Emax is 258% and the half-maximal effective concentration (EC50) was 1100 nM. On to `Cc1ccc(C#N)cc1-c1nc(NS(=O)(=O)c2ccnc(N3CC(C)(O)C3)c2)ccc1C(F)(F)F` [Example 317, N-(6-(5-cyano-2-methylphenyl)-5-(trifluoromethyl)pyridin-2-yl)-2-(3-hydroxy-3-methylazetidin-1-yl)pyridine-4-sulfonamide], for which, under setting [1], the Emax was found to be 185% and the 50% effective concentration (EC50) is 4670 nM. For the molecule `Cc1ccccc1-c1nc(NS(=O)(=O)c2cccc(N[C@H]3CCNC3)n2)ccc1C(F)(F)F` [Example 124, (S)-6-(pyrrolidin-3-ylamino)-N-(6-(o-tolyl)-5-(trifluoromethyl)pyridin-2-yl)pyridine-2-sulfonamide Hydrochloride], under setting [1], the Emax was 148% and the EC50 was 4610 nM. In the case of `CCOC(=O)C1(C)CCN(c2cccc(S(=O)(=O)Nc3ccc(C(F)(F)F)c(-c4c(C)cccc4C)n3)n2)CC1` [Example 266, ethyl 1-(6-{[6-(2,6-dimethylphenyl)-5-(trifluoromethyl)pyridin-2-yl]sulfamoyl}pyridin-2-yl)-4-methylpiperidine-4-carboxylate], the EC50 under setting [1] came out at 1280 nM. Take `CCCC1(C(=O)O)CCCN(c2cccc(S(=O)(=O)Nc3ccc(Cl)c(-c4ccccc4C)n3)n2)C1` (stereo not drawn) [Example 456, 1-(6-(N-(5-chloro-6-(o-tolyl)pyridin-2-yl)sulfamoyl)pyridin-2-yl)-3-propylpiperidine-3-carboxylic Acid]: the EC50 under setting [2] worked out at 1360 nM. Also, the Emax (surface expression Amax) was 465%.

With `C[C@@]1(C(=O)O)CCCN(c2cccc(S(=O)(=O)Nc3ccc(C4CC4)c(-c4ccccc4C4CC4)n3)n2)C1` [Example 407, (R)-1-(6-(N-(5-cyclopropyl-6-(2-cyclopropylphenyl)pyridin-2-yl)sulfamoyl)pyridin-2-yl)-3-methylpiperidine-3-carboxylic Acid], the EC50 under setting [2] came out at 1610 nM. Further, under “surface expression Amax”, the Emax was found to be 468%. The like results for `CC(C)Oc1ccc(Cl)cc1-c1nc(NS(=O)(=O)c2cccc(N3CCC(C)(C(=O)O)CC3)n2)ccc1C(F)(F)F` [Example 427, 1-(6-(N-(6-(5-chloro-2-isopropoxyphenyl)-5-(trifluoromethyl)pyridin-2-yl)sulfamoyl)pyridin-2-yl)-4-methylpiperidine-4-carboxylic Acid] were, in that order, 638 nM and 282%. On the same counts, the results for `CC1(C(=O)O)CCCN(c2cccc(S(=O)(=O)Nc3ccc(C(F)(F)F)c(-c4ccccc4Cl)n3)n2)C1` (stereo not drawn) [Example 399, 1-(6-(N-(6-(2-chlorophenyl)-5-(trifluoromethyl)pyridin-2-yl)sulfamoyl)pyridin-2-yl)-3-methylpiperidine-3-carboxylic Acid] are 2090 nM and 728%. Take `C[C@@]1(C(=O)O)CCCN(c2cccc(S(=O)(=O)Nc3ccc(C(F)(F)F)c(-c4ccccc4C4CCC4)n3)n2)C1` [Example 383, (R)-1-(6-(N-(6-(2-cyclobutylphenyl)-5-(trifluoromethyl)pyridin-2-yl)sulfamoyl)pyridin-2-yl)-3-methylpiperidine-3-carboxylic Acid]: the half-maximal effective concentration (EC50) under setting [2] turned out to be 498 nM. As for `Cc1ccccc1-c1nc(NS(=O)(=O)c2cccc(N3CC[C@@H](C(=O)O)C3)n2)ccc1C(F)(F)F` [Example 349, (3R)-1-(6-{[6-(2-methylphenyl)-5-(trifluoromethyl)pyridin-2-yl]sulfamoyl}pyridin-2-yl)pyrrolidine-3-carboxylic Acid], under setting [1], the Emax turned out to be 252% and the EC50 is 1640 nM.

Regarding `C[C@@]1(C(=O)O)CCCN(c2cccc(S(=O)(=O)Nc3ccc(Cl)c(-c4ccccc4C4CC4)n3)n2)C1` [Example 437, (R)-1-(6-(N-(5-chloro-6-(2-cyclopropylphenyl)pyridin-2-yl)sulfamoyl)pyridin-2-yl)-3-methylpiperidine-3-carboxylic Acid], the 50% effective concentration (EC50) under setting [2] was found to be 1560 nM. In addition, for the setting “surface expression Amax”, the Emax was determined as 869%. Turning to `CCc1ccccc1-c1nc(S(=O)(=O)Nc2cccc(N3CCC(C)(C(=O)O)CC3)n2)ccc1C(F)(F)F` [Example 380, 1-(6-(6-(2-ethylphenyl)-5-(trifluoromethyl)pyridine-2-sulfonamido)pyridin-2-yl)-4-methylpiperidine-4-carboxylic Acid], the concentration for a half-maximal effect (EC50) under setting [2] is 2660 nM. Where the note is “surface expression Amax”, the Emax came to 42.3%.

Regarding `Nc1cccc(S(=O)(=O)Nc2ccc(Cl)c(-c3cc(Cl)ccc3C3CC3)n2)n1` [Example 16, 6-amino-N-(5-chloro-6-(5-chloro-2-cyclopropylphenyl)pyridin-2-yl)pyridine-2-sulfonamide], under setting [1], the Emax turned out to be 519% and the EC50 is 1010 nM. Consider `Cc1ccccc1-c1nc(NS(=O)(=O)c2cccnc2N)ccc1Cl` [Example 88, 2-amino-N-(5-chloro-6-(o-tolyl)pyridin-2-yl)pyridine-3-sulfonamide], for which, under setting [1], the Emax is 92.9% and the half-maximal effective concentration (EC50) was 3780 nM. Regarding `CCCc1ccccc1-c1nc(NS(=O)(=O)c2cccc(N3CCC[C@@](C)(C(=O)O)C3)n2)ccc1C(F)(F)F` [Example 423, (R)-3-methyl-1-(6-(N-(6-(2-propylphenyl)-5-(trifluoromethyl)pyridin-2-yl)sulfamoyl)pyridin-2-yl)piperidine-3-carboxylic Acid], under setting [2], the EC50 was determined as 757 nM. Turning to `Cc1ccccc1-c1nc(NS(=O)(=O)c2cccc(N3C[C@H](C(=O)O)CC[C@@H]3C)n2)ccc1C(F)(F)F` [Example 464], the 50% effective concentration (EC50) under setting [2] was 2430 nM. Also, under “surface expression Amax”, the Emax came to 816%. As for `Cc1ccc(F)cc1-c1nc(NS(=O)(=O)c2cccc(N3CCC[C@](C)(C(=O)O)C3)n2)ccc1C(F)(F)F` [Example 435, (3S)-1-(6-{[6-(5-fluoro-2-methylphenyl)-5-(trifluoromethyl)pyridin-2-yl]sulfamoyl}pyridin-2-yl)-3-methylpiperidine-3-carboxylic Acid], under setting [2], the EC50 is 2300 nM. Moreover, where the note is “surface expression Amax”, the Emax came to 714%. On to `Cc1c(F)cccc1-c1nc(NS(=O)(=O)c2cccc(N3CCn4cnnc4C3)n2)ccc1Cl` [Example 146, N-(5-chloro-6-(3-fluoro-2-methylphenyl)pyridin-2-yl)-6-(5,6-dihydro-[1,2,4]triazolo[4,3-a]pyrazin-7(8H)-yl)pyridine-2-sulfonamide], for which, under setting [1], the Emax was 59.1% and the concentration for a half-maximal effect (EC50) came out at 4280 nM. As for `CCC1(C(=O)O)CCCN(c2cccc(S(=O)(=O)Nc3ccc(Cl)c(-c4ccccc4C)n3)n2)C1` (stereo not drawn) [Example 452, 1-(6-(N-(5-chloro-6-(o-tolyl)pyridin-2-yl)sulfamoyl)pyridin-2-yl)-3-ethylpiperidine-3-carboxylic Acid], the EC50 under setting [2] stood at 2360 nM. In addition, the Emax (surface expression Amax) amounted to 990%. Consider `Cc1cccc(C)c1-c1nc(NS(=O)(=O)c2cccc(N3CCn4ccnc4C3)n2)ccc1Cl` [Example 198, N-(5-chloro-6-(2,6-dimethylphenyl)pyridin-2-yl)-6-(5,6-dihydroimidazo[1,2-a]pyrazin-7(8H)-yl)pyridine-2-sulfonamide], for which, under setting [1], the Emax turned out to be 692% and the concentration giving a half-maximal response (EC50) was determined as 1950 nM. On to `CC1(C(=O)O)CCCN(c2cccc(S(=O)(=O)Nc3ccc(Cl)c(-c4ccccc4C(C)(C)C)n3)n2)C1` (stereo not drawn) [Example 390, 1-(6-(N-(6-(2-(tert-butyl)phenyl)-5-chloropyridin-2-yl)sulfamoyl)pyridin-2-yl)-3-methylpiperidine-3-carboxylic Acid], for which, under setting [2], the EC50 worked out at 761 nM. Under “surface expression Amax”, the Emax stood at 889%. Take `CCOC(=O)C1(C)CCN(c2cccc(S(=O)(=O)Nc3ccc(C(F)(F)F)c(-c4cccc(F)c4C)n3)n2)CC1` [Example 258, ethyl 1-(6-{[6-(3-fluoro-2-methylphenyl)-5-(trifluoromethyl)pyridin-2-yl]sulfamoyl}pyridin-2-yl)-4-methylpiperidine-4-carboxylate]: under setting [1], the Emax was determined as 828% and the EC50 amounted to 1390 nM. As to `CC1(C(=O)O)CCN(c2cccc(S(=O)(=O)Nc3ccc(C(F)(F)F)c(-c4ccccc4OCC(F)(F)F)n3)n2)CC1` [Example 381, 4-methyl-1-(6-(N-(6-(2-(2,2,2-trifluoroethoxy)phenyl)-5-(trifluoromethyl)pyridin-2-yl)sulfamoyl)pyridin-2-yl)piperidine-4-carboxylic Acid], the concentration giving a half-maximal response (EC50) under setting [2] worked out at 2510 nM. Further, the Emax (surface expression Amax) was 284%. On the same counts, the results for `CC(C)COc1ccccc1-c1nc(NS(=O)(=O)c2cccc(N3CCC(C)(C(=O)O)CC3)n2)ccc1Cl` [Example 397, 1-(6-(N-(5-chloro-6-(2-isobutoxyphenyl)pyridin-2-yl)sulfamoyl)pyridin-2-yl)-4-methylpiperidine-4-carboxylic Acid] are 1280 nM and 303%. With `Cc1ccccc1-c1nc(NS(=O)(=O)c2cccc(N)n2)ccc1C` [Example 75, 6-amino-N-(5-methyl-6-(o-tolyl)pyridin-2-yl)pyridine-2-sulfonamide], under setting [1], the Emax was 158% and the EC50 came out at 2840 nM. The like results for `Cc1ccc(OC(F)(F)F)cc1-c1nc(NS(=O)(=O)c2cccc(N)n2)ccc1C(F)(F)F` [Example 82, 6-amino-N-(6-(2-methyl-5-(trifluoromethoxy)phenyl)-5-(trifluoromethyl)pyridin-2-yl)pyridine-2-sulfonamide] were, in that order, 124% and 942 nM.
